# Data taken from PubChem BioAssay (NCI).
#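 Results reflect a 48-hour exposure of cells in 96-well plates to compound at five concentrations. GI50 is the concentration that inhibits growth by half. TGI: total growth inhibition.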
# Columns and labels:
# Assay in all cases: NCI-60 cell line screen, 48 h
# NCI/ADR-RES ovarian = tested on: NCI/ADR-RES ovarian
# HOP-92 NSCLC = tested on: HOP-92 NSCLC
# OVCAR-3 ovarian = tested on: OVCAR-3 ovarian
# UACC-257 melanoma = tested on: UACC-257 melanoma
# M14 melanoma = tested on: M14 melanoma
# HOP-62 NSCLC = tested on: HOP-62 NSCLC
# UACC-62 melanoma = tested on: UACC-62 melanoma
# MDA-MB-468 breast = tested on: MDA-MB-468 breast
# MALME-3M melanoma = tested on: MALME-3M melanoma
# 786-0 renal = tested on: 786-0 renal
# T-47D breast = tested on: T-47D breast
# NCI-H460 lung = tested on: NCI-H460 lung
# SK-OV-3 ovarian = tested on: SK-OV-3 ovarian
# A549 NSCLC = tested on: A549 NSCLC
# NCI-H226 lung = tested on: NCI-H226 lung
# OVCAR-5 ovarian = tested on: OVCAR-5 ovarian
# MCF7 breast = tested on: MCF7 breast
# SK-MEL-2 melanoma = tested on: SK-MEL-2 melanoma
# COLO 205 colon = tested on: COLO 205 colon
# MDA-MB-435 = tested on: MDA-MB-435
# KM12 colon = tested on: KM12 colon
# PC-3 prostate = tested on: PC-3 prostate
# TK-10 renal = tested on: TK-10 renal
# SK-MEL-5 melanoma = tested on: SK-MEL-5 melanoma
# HCT-15 colon = tested on: HCT-15 colon
# BT-549 breast = tested on: BT-549 breast
# SK-MEL-28 melanoma = tested on: SK-MEL-28 melanoma
# HCT-116 colon = tested on: HCT-116 colon
# A498 renal = tested on: A498 renal
# RXF 393 renal = tested on: RXF 393 renal
# SW-620 colon = tested on: SW-620 colon
# HT29 colon = tested on: HT29 colon
# HL-60(TB) leukemia = tested on: HL-60(TB) leukemia
# SR leukemia = tested on: SR leukemia
# CAKI-1 renal = tested on: CAKI-1 renal
# MOLT-4 leukemia = tested on: MOLT-4 leukemia
# NCI-H23 lung = tested on: NCI-H23 lung
# NCI-H522 lung = tested on: NCI-H522 lung
# CCRF-CEM leukemia = tested on: CCRF-CEM leukemia
# SF-268 CNS = tested on: SF-268 CNS
# LOX IMVI melanoma = tested on: LOX IMVI melanoma
# ACHN renal = tested on: ACHN renal
# EKVX NSCLC = tested on: EKVX NSCLC
# SF-295 CNS = tested on: SF-295 CNS
# SF-539 CNS = tested on: SF-539 CNS
# DU-145 prostate = tested on: DU-145 prostate
# OVCAR-4 ovarian = tested on: OVCAR-4 ovarian
# UO-31 renal = tested on: UO-31 renal
# K-562 leukemia = tested on: K-562 leukemia
# MDA-MB-231 breast = tested on: MDA-MB-231 breast
# IGROV1 ovarian = tested on: IGROV1 ovarian
# OVCAR-8 ovarian = tested on: OVCAR-8 ovarian
# SN12C renal = tested on: SN12C renal
# SNB-19 CNS = tested on: SNB-19 CNS
# RPMI-8226 leukemia = tested on: RPMI-8226 leukemia
# SNB-75 CNS = tested on: SNB-75 CNS
# U251 CNS = tested on: U251 CNS
# HS 578T breast = tested on: HS 578T breast
# HCC-2998 colon = tested on: HCC-2998 colon
smiles,measurement,setting,value
CN1CCN(CCS(=O)(=O)Nc2cc(-c3ccc4ncnc(Nc5ccc(F)c(Cl)c5)c4c3)cnc2Cl)CC1,GI50,NCI/ADR-RES ovarian,66.6 µM
same,TGI,NCI/ADR-RES ovarian,> 100 µM
same,GI50,HOP-92 NSCLC,0.675 µM
same,TGI,HOP-92 NSCLC,7.13 µM
same,GI50,OVCAR-3 ovarian,0.596 µM
same,TGI,OVCAR-3 ovarian,2.99 µM
same,GI50,UACC-257 melanoma,3.02 µM
same,TGI,UACC-257 melanoma,17.2 µM
same,GI50,M14 melanoma,3.34 µM
same,TGI,M14 melanoma,20.5 µM
same,GI50,HOP-62 NSCLC,2.04 µM
same,TGI,HOP-62 NSCLC,38.4 µM
same,GI50,UACC-62 melanoma,1.18 µM
same,TGI,UACC-62 melanoma,9.65 µM
same,GI50,MDA-MB-468 breast,0.205 µM
same,TGI,MDA-MB-468 breast,0.902 µM
same,GI50,MALME-3M melanoma,0.726 µM
same,TGI,MALME-3M melanoma,5.76 µM
same,GI50,786-0 renal,1.84 µM
same,TGI,786-0 renal,> 100 µM
same,GI50,T-47D breast,0.221 µM
same,TGI,T-47D breast,3.12 µM
same,GI50,NCI-H460 lung,5.85 µM
same,TGI,NCI-H460 lung,> 100 µM
same,GI50,SK-OV-3 ovarian,1.59 µM
same,TGI,SK-OV-3 ovarian,7.28 µM
same,GI50,A549 NSCLC,11.1 µM
same,TGI,A549 NSCLC,49.9 µM
same,GI50,NCI-H226 lung,1.96 µM
same,TGI,NCI-H226 lung,> 100 µM
same,GI50,OVCAR-5 ovarian,2.56 µM
same,TGI,OVCAR-5 ovarian,27 µM
same,GI50,MCF7 breast,1.16 µM
same,TGI,MCF7 breast,15.3 µM
same,GI50,SK-MEL-2 melanoma,2.32 µM
same,TGI,SK-MEL-2 melanoma,7.79 µM
same,GI50,COLO 205 colon,2.74 µM
same,TGI,COLO 205 colon,10.4 µM
same,GI50,MDA-MB-435,3.11 µM
same,TGI,MDA-MB-435,16 µM
same,GI50,KM12 colon,8.23 µM
same,TGI,KM12 colon,31.5 µM
same,GI50,PC-3 prostate,2.09 µM
same,TGI,PC-3 prostate,19.6 µM
same,GI50,TK-10 renal,1.83 µM
same,TGI,TK-10 renal,13.2 µM
same,GI50,SK-MEL-5 melanoma,1.61 µM
same,TGI,SK-MEL-5 melanoma,4.34 µM
same,GI50,HCT-15 colon,4.38 µM
same,TGI,HCT-15 colon,43.6 µM
same,GI50,BT-549 breast,1.06 µM
same,TGI,BT-549 breast,4.28 µM
same,GI50,SK-MEL-28 melanoma,2.39 µM
same,TGI,SK-MEL-28 melanoma,37.4 µM
same,GI50,HCT-116 colon,4.18 µM
same,TGI,HCT-116 colon,18.5 µM
same,GI50,A498 renal,1.03 µM
same,TGI,A498 renal,4.4 µM
same,GI50,RXF 393 renal,0.784 µM
same,TGI,RXF 393 renal,3.85 µM
same,GI50,SW-620 colon,1.95 µM
same,TGI,SW-620 colon,38.6 µM
same,GI50,HT29 colon,3.87 µM
same,TGI,HT29 colon,21.5 µM
same,GI50,HL-60(TB) leukemia,0.658 µM
same,TGI,HL-60(TB) leukemia,23.7 µM
same,GI50,SR leukemia,2.06 µM
same,TGI,SR leukemia,7.68 µM
same,GI50,CAKI-1 renal,1.33 µM
same,TGI,CAKI-1 renal,19 µM
same,GI50,MOLT-4 leukemia,2.5 µM
same,TGI,MOLT-4 leukemia,7.08 µM
same,GI50,NCI-H23 lung,2.8 µM
same,TGI,NCI-H23 lung,15.1 µM
same,GI50,NCI-H522 lung,1.96 µM
same,TGI,NCI-H522 lung,11.3 µM
same,GI50,CCRF-CEM leukemia,0.579 µM
same,TGI,CCRF-CEM leukemia,80.4 µM
same,GI50,SF-268 CNS,1.8 µM
same,TGI,SF-268 CNS,37.7 µM
same,GI50,LOX IMVI melanoma,1.17 µM
same,TGI,LOX IMVI melanoma,2.92 µM
same,GI50,ACHN renal,3.67 µM
same,TGI,ACHN renal,> 100 µM
same,GI50,EKVX NSCLC,1.23 µM
same,TGI,EKVX NSCLC,6.36 µM
same,GI50,SF-295 CNS,3.01 µM
same,TGI,SF-295 CNS,65.1 µM
same,GI50,SF-539 CNS,1.82 µM
same,TGI,SF-539 CNS,6.8 µM
same,GI50,DU-145 prostate,3.23 µM
same,TGI,DU-145 prostate,> 100 µM
same,GI50,OVCAR-4 ovarian,5.45 µM
same,TGI,OVCAR-4 ovarian,> 100 µM
same,GI50,UO-31 renal,2.07 µM
same,TGI,UO-31 renal,13.4 µM
same,GI50,K-562 leukemia,4.5 µM
same,TGI,K-562 leukemia,> 100 µM
same,GI50,MDA-MB-231 breast,1.74 µM
same,TGI,MDA-MB-231 breast,4.13 µM
same,GI50,IGROV1 ovarian,0.686 µM
same,TGI,IGROV1 ovarian,2.93 µM
same,GI50,OVCAR-8 ovarian,3.73 µM
same,TGI,OVCAR-8 ovarian,23.1 µM
same,GI50,SN12C renal,3.25 µM
same,TGI,SN12C renal,> 100 µM
same,GI50,SNB-19 CNS,1.97 µM
same,TGI,SNB-19 CNS,> 100 µM
same,GI50,RPMI-8226 leukemia,13.5 µM
same,TGI,RPMI-8226 leukemia,38 µM
same,GI50,SNB-75 CNS,0.458 µM
same,TGI,SNB-75 CNS,11 µM
same,GI50,U251 CNS,3.12 µM
same,TGI,U251 CNS,> 100 µM
same,GI50,HS 578T breast,0.32 µM
same,TGI,HS 578T breast,3.75 µM
same,GI50,HCC-2998 colon,1.6 µM
same,TGI,HCC-2998 colon,6.2 µM
